≈ marks a conversion by molar mass, not a printed value. Calls of active or inactive are those of the source. The calls are words filed in the database; no cut-off is given here.
Experiments:
[1] = target: Opioid receptors; mu/kappa/delta (Homo sapiens) (UniProt P41145+P41143+P35372); assay: Inhibition of opiate receptor at 10 uM; type: protein assay
[2] = target: GABA-A receptor; anion channel (Homo sapiens) (UniProt P14867+P47870+P18507+P28472+P48169+Q99928+Q9UN88+P34903+O00591+O14764+Q8N1C3+P18505+P78334+P47869+P31644+Q16445); assay: Inhibition of central BZD receptor at 10 uM; type: protein-complex assay
[3] = target: Adrenergic receptor alpha-1 (Homo sapiens) (UniProt P35348+P25100+P35368); assay: Inhibition of alpha1 receptor at 10 uM; type: protein assay
[4] = target: Cholecystokinin receptor type A (Homo sapiens) (UniProt P32238); assay: Inhibition of human CCKA receptor at 10 uM
[5] = target: Muscarinic acetylcholine receptor (Homo sapiens) (UniProt P20309+P08173+P11229+P08172+P08912); assay: Inhibition of human M receptor at 10 uM; type: protein assay
Mus musculus = assay: Inhibition of goblet cell hyperplasia in BALB/c mouse at 5 mg/kg, po relative to control; type: functional, organism-based; parameters: dose 5 mg/kg
[6] = target: D(2) dopamine receptor (Homo sapiens) (UniProt P14416); assay: Inhibition of human D2S receptor at 10 uM
[7] = target: Beta-1 adrenergic receptor (Homo sapiens) (UniProt P08588); assay: Inhibition of human beta-1 receptor at 10 uM
[8] = target: Sodium-dependent dopamine transporter (Homo sapiens) (UniProt Q01959); assay: Inhibition of human DA transporter at 10 uM
[9] = Aqueous solubility in PBS at pH 7.4; type: physicochemical
[10] = target: Melanocortin receptor 4 (Homo sapiens) (UniProt P32245); assay: Inhibition of human MC4 receptor at 10 uM
[11] = target: Adenosine receptor A1 (Homo sapiens) (UniProt P30542); assay: Inhibition of human A1 receptor at 10 uM
[12] = target: fMet-Leu-Phe receptor (Homo sapiens) (UniProt P21462); assay: Inhibition of human fMLP receptor at 10 uM
Rattus norvegicus = species: Rattus norvegicus; assay: Stability in rat liver S9 fraction; type: ADME
[13] = target: Histamine H2 receptor (Homo sapiens) (UniProt P25021); assay: Inhibition of human H2 receptor at 10 uM
[14] = target: T1, Prostaglandin D2 receptor 2 (Homo sapiens, UniProt Q9Y5Y4); assay: Antagonist activity against CRTH2 receptor measured as inhibition of PGD2-induced beta-arrestin translocation in HEK293 cells by BRET assay; type: functional, cell-based
T1 sequence (Q9Y5Y4 whole entry): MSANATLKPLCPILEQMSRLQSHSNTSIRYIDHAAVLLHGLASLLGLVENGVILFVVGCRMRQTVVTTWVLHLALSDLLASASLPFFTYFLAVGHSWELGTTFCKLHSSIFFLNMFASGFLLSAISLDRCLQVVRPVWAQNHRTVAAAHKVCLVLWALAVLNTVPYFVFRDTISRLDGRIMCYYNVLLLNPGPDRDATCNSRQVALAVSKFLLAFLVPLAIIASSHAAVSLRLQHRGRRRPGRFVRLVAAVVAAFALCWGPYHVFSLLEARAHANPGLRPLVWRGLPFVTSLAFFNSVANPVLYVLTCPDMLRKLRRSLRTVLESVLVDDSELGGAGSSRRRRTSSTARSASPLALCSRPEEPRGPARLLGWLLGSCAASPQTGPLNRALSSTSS

[15] = target: Prostaglandin D2 receptor 2 (Mus musculus, UniProt Q9Z2J6); assay: Inhibition of mouse CRTH2 receptor
[16] = Aqueous solubility at pH 1; type: physicochemical; details: buffer
[17] = target: Type-2 angiotensin II receptor (Homo sapiens) (UniProt P50052); assay: Inhibition of AT2
[18] = target: Platelet-activating factor receptor (Homo sapiens) (UniProt P25105); assay: Inhibition of human PAF receptor at 10 uM
[19] = Bioavailability in rat; type: ADME, organism-based; details: in vivo
[20] = Distribution coefficient, log D at pH 7.4; type: physicochemical; details: octanol/water
[21] = target: Histamine H1 receptor (Homo sapiens) (UniProt P35367); assay: Inhibition of human H1 receptor at 10 uM
[22] = target: Cysteinyl leukotriene receptor 1 (Homo sapiens) (UniProt Q9Y271); assay: Inhibition of human LTD4 receptor at 10 uM
[23] = target: Substance-P receptor (Homo sapiens) (UniProt P25103); assay: Inhibition of human NK1 receptor at 10 uM
[24] = target: Thromboxane A2 receptor (Homo sapiens) (UniProt P21731); assay: Inhibition of human TXA2 receptor at 10 uM
[25] = target: Prostaglandin D2 receptor (Homo sapiens, UniProt Q13258); assay: Inhibition of DP1
[26] = target: Sigma non-opioid intracellular receptor 1 (Homo sapiens) (UniProt Q99720); assay: Inhibition of sigma receptor at 10 uM
[27] = Inhibition of neuronal nicotinic receptor at 10 uM
[28] = target: D(1A) dopamine receptor (Homo sapiens) (UniProt P21728); assay: Inhibition of human D1 receptor at 10 uM
[29] = target: Vasopressin V1a receptor (Homo sapiens) (UniProt P37288); assay: Inhibition of human V1a receptor at 10 uM
[30] = target: Prostaglandin G/H synthase 2 (Homo sapiens) (UniProt P35354); assay: Inhibition of COX2 at 10 uM
[31] = target: Gastric inhibitory polypeptide receptor (Homo sapiens) (UniProt P48546); assay: Inhibition of GIP receptor at 10 uM
[32] = target: Prostaglandin G/H synthase 1 (Homo sapiens) (UniProt P23219); assay: Inhibition of COX1 at 10 uM
[33] = target: Prostaglandin D2 receptor (Homo sapiens) (UniProt Q13258); assay: Inhibition of human DP receptor at 10 uM
[34] = Permeability from apical to basolateral side of Caco-2 cells; type: ADME, cell-based; details: human, read-out: permeability
[35] = target: Adrenergic receptor alpha-2 (Homo sapiens) (UniProt P08913+P18825+P18089); assay: Inhibition of alpha-2 receptor at 10 uM; type: protein assay
[36] = target: Type-1 angiotensin II receptor (Homo sapiens) (UniProt P30556); assay: Inhibition of human AT1 receptor at 10 uM
[37] = target: Somatostatin receptor (Homo sapiens) (UniProt P35346+P30874+P31391+P30872+P32745); assay: Inhibition of sst receptor at 10 uM; type: protein assay
[38] = target: T1, Prostaglandin D2 receptor 2; assay: Displacement of [3H]PGD2 from human CRTH2 receptor expressed in HEK293 cells; type: cell-based
[39] = target: Chemerin-like receptor 1 (Homo sapiens) (UniProt Q99788); assay: Inhibition of ChemR23 receptor at 10 uM
[40] = target: B2 bradykinin receptor (Homo sapiens) (UniProt P30411); assay: Inhibition of human B2 receptor at 10 uM
[41] = target: C5a anaphylatoxin chemotactic receptor 1 (Homo sapiens) (UniProt P21730); assay: Inhibition of human C5a receptor at 10 uM
Sequence of C5a anaphylatoxin chemotactic receptor 1 (Homo sapiens) (P21730 whole entry): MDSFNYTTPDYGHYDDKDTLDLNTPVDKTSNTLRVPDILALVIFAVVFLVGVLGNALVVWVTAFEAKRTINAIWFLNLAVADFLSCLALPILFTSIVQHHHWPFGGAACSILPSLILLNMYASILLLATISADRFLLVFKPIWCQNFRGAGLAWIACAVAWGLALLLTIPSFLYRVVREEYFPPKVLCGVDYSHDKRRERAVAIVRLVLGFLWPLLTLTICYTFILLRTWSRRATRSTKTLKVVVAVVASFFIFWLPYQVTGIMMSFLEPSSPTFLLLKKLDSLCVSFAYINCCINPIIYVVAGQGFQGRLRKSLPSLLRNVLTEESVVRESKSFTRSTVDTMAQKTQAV

Sequence of fMet-Leu-Phe receptor (Homo sapiens) (P21462 whole entry): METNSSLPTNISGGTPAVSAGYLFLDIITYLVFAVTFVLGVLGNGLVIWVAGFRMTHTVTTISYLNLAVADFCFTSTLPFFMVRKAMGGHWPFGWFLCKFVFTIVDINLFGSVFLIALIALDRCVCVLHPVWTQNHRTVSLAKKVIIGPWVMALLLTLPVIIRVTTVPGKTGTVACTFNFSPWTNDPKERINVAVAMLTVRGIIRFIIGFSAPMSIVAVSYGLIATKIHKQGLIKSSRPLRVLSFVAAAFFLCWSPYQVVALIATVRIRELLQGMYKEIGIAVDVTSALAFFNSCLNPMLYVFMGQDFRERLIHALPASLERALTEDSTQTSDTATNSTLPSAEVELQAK
Sequence of Sodium-dependent dopamine transporter (Homo sapiens) (Q01959 whole entry): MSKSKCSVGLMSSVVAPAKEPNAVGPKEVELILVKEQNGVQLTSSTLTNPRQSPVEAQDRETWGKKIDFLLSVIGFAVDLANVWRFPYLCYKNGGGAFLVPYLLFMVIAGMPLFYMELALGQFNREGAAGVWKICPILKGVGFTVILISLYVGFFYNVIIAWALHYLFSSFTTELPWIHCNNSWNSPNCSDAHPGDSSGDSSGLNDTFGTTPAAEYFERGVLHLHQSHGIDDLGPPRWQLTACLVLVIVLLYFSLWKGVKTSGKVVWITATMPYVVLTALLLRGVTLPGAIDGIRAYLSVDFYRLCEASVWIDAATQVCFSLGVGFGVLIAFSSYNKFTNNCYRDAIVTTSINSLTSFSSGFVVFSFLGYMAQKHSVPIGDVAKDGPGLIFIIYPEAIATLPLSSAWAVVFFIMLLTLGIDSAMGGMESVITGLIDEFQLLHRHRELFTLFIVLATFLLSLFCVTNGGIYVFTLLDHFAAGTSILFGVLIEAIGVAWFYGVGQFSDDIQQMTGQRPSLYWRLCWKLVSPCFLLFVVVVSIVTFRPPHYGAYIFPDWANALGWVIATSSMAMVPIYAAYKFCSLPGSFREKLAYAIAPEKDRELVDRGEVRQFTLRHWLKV
Sequence of Gastric inhibitory polypeptide receptor (Homo sapiens) (P48546 whole entry): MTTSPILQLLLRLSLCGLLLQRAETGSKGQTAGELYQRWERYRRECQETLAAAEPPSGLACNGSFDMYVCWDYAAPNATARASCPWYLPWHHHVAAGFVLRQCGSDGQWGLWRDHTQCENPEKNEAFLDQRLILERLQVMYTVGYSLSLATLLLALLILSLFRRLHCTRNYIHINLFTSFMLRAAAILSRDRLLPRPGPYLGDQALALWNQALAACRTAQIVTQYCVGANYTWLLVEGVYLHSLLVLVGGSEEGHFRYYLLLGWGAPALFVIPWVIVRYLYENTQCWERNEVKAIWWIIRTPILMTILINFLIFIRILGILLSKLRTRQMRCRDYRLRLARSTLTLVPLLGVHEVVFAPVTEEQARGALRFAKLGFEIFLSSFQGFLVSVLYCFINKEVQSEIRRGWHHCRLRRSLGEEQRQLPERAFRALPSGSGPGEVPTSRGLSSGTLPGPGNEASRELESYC
Sequence of Prostaglandin D2 receptor (Q13258 whole entry): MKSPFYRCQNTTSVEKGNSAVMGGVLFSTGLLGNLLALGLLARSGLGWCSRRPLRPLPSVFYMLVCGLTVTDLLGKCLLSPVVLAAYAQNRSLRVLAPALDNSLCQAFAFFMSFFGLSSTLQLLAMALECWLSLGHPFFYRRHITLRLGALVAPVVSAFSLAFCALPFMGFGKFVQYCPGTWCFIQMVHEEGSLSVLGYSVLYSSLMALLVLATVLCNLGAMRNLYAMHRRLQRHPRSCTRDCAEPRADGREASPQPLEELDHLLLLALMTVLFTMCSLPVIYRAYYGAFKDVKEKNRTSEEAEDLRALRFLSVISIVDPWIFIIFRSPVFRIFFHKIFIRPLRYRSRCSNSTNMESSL
Sequence of Prostaglandin D2 receptor (Homo sapiens) (Q13258 whole entry): as above
Sequence of Type-2 angiotensin II receptor (Homo sapiens) (P50052 whole entry): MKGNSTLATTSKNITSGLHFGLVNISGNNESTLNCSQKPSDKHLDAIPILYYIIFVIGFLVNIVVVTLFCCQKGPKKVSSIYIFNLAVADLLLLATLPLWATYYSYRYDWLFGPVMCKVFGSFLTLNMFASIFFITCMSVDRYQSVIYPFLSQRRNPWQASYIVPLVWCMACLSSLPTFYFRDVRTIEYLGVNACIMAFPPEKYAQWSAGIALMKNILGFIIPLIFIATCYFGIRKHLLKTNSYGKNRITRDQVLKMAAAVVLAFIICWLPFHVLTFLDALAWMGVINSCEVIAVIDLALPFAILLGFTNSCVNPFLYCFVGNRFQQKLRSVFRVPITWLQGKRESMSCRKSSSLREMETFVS
Sequence of Cholecystokinin receptor type A (Homo sapiens) (P32238 whole entry): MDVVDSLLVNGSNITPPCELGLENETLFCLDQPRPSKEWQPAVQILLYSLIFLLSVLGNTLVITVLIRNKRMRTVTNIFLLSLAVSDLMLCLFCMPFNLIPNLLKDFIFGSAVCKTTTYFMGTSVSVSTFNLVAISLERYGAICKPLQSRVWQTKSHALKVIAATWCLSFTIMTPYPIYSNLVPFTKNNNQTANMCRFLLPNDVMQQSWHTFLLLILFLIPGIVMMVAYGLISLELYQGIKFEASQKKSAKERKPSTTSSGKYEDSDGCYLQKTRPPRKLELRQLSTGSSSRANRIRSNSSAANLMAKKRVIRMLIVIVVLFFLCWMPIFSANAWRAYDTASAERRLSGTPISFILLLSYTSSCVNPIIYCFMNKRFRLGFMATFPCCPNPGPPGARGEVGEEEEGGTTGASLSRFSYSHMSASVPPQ
Sequence of D(1A) dopamine receptor (Homo sapiens) (P21728 whole entry): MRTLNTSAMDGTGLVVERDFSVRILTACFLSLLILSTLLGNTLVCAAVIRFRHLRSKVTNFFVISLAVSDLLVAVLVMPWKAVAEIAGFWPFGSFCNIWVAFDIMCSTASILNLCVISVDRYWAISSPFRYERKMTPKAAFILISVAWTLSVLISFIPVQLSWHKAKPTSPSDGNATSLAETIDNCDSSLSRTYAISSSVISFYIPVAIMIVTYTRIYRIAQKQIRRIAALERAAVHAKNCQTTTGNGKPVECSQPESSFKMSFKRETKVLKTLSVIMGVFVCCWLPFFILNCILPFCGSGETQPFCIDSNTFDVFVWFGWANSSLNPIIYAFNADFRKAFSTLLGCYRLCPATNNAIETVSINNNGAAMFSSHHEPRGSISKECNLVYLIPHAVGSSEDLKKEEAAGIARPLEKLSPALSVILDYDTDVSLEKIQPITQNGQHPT
Sequence of D(2) dopamine receptor (Homo sapiens) (P14416 whole entry): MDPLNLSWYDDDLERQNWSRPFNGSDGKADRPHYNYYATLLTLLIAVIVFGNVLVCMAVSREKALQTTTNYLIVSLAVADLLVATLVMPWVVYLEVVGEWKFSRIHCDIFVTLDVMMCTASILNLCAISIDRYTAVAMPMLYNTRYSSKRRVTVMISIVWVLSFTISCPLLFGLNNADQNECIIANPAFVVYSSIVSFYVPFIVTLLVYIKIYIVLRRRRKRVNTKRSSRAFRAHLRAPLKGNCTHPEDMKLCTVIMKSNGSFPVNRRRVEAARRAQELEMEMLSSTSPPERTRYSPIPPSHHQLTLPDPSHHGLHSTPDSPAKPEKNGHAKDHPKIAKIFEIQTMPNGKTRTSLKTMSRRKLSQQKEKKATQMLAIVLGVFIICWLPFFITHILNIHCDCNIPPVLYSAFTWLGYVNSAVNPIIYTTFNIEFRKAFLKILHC
Sequence of Thromboxane A2 receptor (Homo sapiens) (P21731 whole entry): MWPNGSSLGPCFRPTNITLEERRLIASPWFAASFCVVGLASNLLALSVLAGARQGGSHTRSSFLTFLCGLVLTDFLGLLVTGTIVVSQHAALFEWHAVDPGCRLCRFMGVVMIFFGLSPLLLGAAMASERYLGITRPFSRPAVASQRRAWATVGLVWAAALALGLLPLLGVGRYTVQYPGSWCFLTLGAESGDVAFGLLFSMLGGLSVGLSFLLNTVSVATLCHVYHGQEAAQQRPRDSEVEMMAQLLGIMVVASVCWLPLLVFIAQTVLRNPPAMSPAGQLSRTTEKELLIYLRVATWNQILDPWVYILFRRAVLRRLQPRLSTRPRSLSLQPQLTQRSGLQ
Sequence of Cysteinyl leukotriene receptor 1 (Homo sapiens) (Q9Y271 whole entry): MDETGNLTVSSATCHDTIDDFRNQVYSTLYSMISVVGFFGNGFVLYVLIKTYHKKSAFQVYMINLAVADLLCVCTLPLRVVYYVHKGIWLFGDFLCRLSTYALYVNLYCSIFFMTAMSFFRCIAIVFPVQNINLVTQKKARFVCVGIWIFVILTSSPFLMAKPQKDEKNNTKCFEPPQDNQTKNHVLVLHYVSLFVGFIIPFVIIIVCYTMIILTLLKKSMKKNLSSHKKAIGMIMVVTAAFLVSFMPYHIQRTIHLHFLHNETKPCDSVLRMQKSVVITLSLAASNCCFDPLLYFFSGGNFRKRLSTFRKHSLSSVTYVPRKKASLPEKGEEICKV
Sequence of Adenosine receptor A1 (Homo sapiens) (P30542 whole entry): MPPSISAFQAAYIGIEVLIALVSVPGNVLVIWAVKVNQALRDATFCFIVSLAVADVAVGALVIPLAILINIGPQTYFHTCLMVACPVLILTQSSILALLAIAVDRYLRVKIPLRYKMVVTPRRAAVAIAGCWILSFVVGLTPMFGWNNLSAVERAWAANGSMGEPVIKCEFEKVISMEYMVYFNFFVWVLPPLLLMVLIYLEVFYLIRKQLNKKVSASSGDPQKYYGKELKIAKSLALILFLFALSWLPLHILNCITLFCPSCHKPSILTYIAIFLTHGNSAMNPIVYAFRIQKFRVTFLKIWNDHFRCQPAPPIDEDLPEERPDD

O=C(O)COc1ccc(Br)cc1C(=O)c1cnn(-c2ccccc2)c1
inhibition [1]: < 30% | inhibition [2]: < 30% | inhibition [3]: < 30% | inhibition [4]: < 30% | inhibition [5]: < 30% | Activity (Mus musculus): Active | inhibition [6]: < 30% | inhibition [7]: < 30% | inhibition [8]: < 30% | solubility [9]: 200 µM (≈ 80.2 µg/mL) | inhibition [10]: < 30% | inhibition [11]: < 30% | inhibition [12]: < 30% | Stability (Rattus norvegicus): 92% | inhibition [13]: < 30% | IC50 [14]: 24 nM | IC50 [15]: 3.2 nM | solubility [16]: 80 µM (≈ 32.1 µg/mL) | Activity [17]: inactive | inhibition [18]: < 30% | bioavailability [19]: 84% | logD [20]: 0.64 | inhibition [21]: < 30% | inhibition [22]: < 30% | inhibition [23]: < 30% | inhibition [24]: < 30% | IC50 [25]: > 100000 nM | inhibition [26]: < 30% | inhibition [27]: < 30% | inhibition [28]: < 30% | inhibition [29]: < 30% | inhibition [30]: < 20% | inhibition [31]: < 30% | inhibition [32]: < 20% | inhibition [33]: < 30% | Papp A→B [34]: 87 nm/s | inhibition [35]: < 30% | inhibition [36]: < 30% | inhibition [37]: < 30% | IC50 [38]: 1.5 nM | inhibition [39]: < 30% | inhibition [40]: < 30% | inhibition [41]: < 30%
